Measurements reported in patent US9958434B2, “Fluorescent probe sensing tyrosine kinase and use thereof” (POSTECH ACADEMY-INDUSTRY FOUNDATION, priority 2013, dated 2018).

What was measured:
[1] = test system: six kinase enzymes: ABL, BRAF, PDGFRa, RSK2, Src, TYK2; assay: Effect of kinase inhibitor on binding of compound 1 to kinase enzymes (fluorescence intensity)
Protocol: In this experiment, a buffer (100 mM HEPES buffer, pH 7.4) was used as the solvent, and a kinase commercially available from Carna Biosciences was used as the kinase enzyme. Here, each kinase enzyme was stored at −80° C. together with a solvent (50 mM Tris-HCl, 150 mM NaCl, 0.1% CHAPS, 1 mM DTT, and 10% Glycerol, pH 7.5) kindly provided by the manufacturer. […] A 96-well fluorescence assay plate (commercially available from SPL Life Science) was used as a plate used upon measurement of fluorescence, and a VCITOR 3 multilabel counter (commercially available from Perkin Elmer-Wellesley) was used as a measuring machine. A 355 nm-thick filter was used to produce excitation wavelengths of the measuring machine, and a 535 nm-thick filter was used to produce emission wavelengths of the measuring machine. […]
More particularly, an effect of the inhibitor on a total of the six kinase enzymes was determined, and the six kinase enzymes are as follows: (A) ABL, (B) BRAF, (C) PDGFRa, (D) RSK2, (E) Src, and (F) TYK2. […]
In this case, compound 1 (100 μM), ATP (1 mM), Mg (1 mM), and a kinase enzyme (0.2 μg/ml) were stirred for 24 hours (at 37° C.), and an inhibitor (100 μM) was then treated. […] Here, a left bar of each of A to F represents a fluorescence intensity before treatment of the inhibitor, and a right bar of each of A to F represents a fluorescence intensity after treatment of the inhibitor.

[2] = biological target: T1, PDGFRa (Homo sapiens, UniProt P16234); assay: Protein binding selectivity by change in fluorescence (fluorescence turn-on on binding)
T1 construct: purchased Carna Biosciences
T1 sequence (P16234 24-1089): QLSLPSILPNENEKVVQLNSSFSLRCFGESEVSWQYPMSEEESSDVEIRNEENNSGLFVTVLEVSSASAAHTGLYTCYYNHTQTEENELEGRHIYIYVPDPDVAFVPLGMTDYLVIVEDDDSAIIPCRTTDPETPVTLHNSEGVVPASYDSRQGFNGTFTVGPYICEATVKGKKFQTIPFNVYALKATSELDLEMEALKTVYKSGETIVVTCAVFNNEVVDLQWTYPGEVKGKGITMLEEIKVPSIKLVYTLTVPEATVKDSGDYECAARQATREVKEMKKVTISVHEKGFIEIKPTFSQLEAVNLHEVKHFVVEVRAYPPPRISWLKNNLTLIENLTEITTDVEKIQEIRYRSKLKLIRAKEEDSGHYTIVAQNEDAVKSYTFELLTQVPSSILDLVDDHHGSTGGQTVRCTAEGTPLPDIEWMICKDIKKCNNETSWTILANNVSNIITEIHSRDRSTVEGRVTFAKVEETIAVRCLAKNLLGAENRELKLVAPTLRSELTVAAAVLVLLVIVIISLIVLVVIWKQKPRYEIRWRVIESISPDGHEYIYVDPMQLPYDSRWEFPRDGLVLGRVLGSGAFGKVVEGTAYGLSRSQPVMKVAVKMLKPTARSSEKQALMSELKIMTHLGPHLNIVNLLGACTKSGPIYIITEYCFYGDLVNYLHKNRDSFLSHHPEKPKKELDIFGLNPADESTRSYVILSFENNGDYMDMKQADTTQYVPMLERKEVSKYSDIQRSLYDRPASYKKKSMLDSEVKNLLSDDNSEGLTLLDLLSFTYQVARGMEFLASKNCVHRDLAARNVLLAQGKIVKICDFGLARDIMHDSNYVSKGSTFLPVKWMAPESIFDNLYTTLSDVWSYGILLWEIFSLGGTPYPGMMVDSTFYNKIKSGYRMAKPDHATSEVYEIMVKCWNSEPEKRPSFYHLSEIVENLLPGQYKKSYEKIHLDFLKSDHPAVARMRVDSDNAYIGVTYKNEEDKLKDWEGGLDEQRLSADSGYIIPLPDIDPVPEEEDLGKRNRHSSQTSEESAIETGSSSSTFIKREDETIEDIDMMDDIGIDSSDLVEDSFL
Protocol: More particularly, to determine whether compound 1 selectively binds to a kinase enzyme, various proteins (including a kinase enzyme) were used to check a change in fluorescence. In this experiment, a buffer (100 mM HEPES buffer, pH 7.4) was used as the solvent, and a kinase commercially available from Carna Biosciences was used as the kinase enzyme. Here, each kinase enzyme was stored at −80° C. together with a solvent (50 mM Tris-HCl, 150 mM NaCl, 0.1% CHAPS, 1 mM DTT, and 10% Glycerol, pH 7.5) kindly provided by the manufacturer. […] A 96-well fluorescence assay plate (commercially available from SPL Life Science) was used as a plate used upon measurement of fluorescence, and a VCITOR 3 multilabel counter (commercially available from Perkin Elmer-Wellesley) was used as a measuring machine. A 355 nm-thick filter was used to produce excitation wavelengths of the measuring machine, and a 535 nm-thick filter was used to produce emission wavelengths of the measuring machine. Stirring was performed at 37° C. for 24 hours at a rotary speed of 170 rpm using an NB-205Q model (commercially available from N-BIOTEK). Compound 1 was dissolved in a DMSO solution (1 mM, 10 mM, 50 mM, 100 mM, and 200 mM) to be used, and DMSO in every tube was adjusted to be substantially the same content (less than 1%) under the finally used solvent conditions. Mg^2+ and ATP were used at a content of 1 mM.
In the graph shown in FIG. 2, the horizontal axis represents kinds of proteins, and the vertical axis represents fluorescence intensities of the proteins. Each experimental value was basically an average value of three experiments conducted through the same course for preparing for experiments, a concentration of compound 1 used was 100 μM, and an amount of each protein was 0.2 μg/mL. The kinds of proteins indicated on the horizontal axis are as follows.
More particularly, Model WUV-L10 commercially available from WiseUV was used as a UV excitation device, and the solvent and experiment conditions used were substantially the same as in Example 3. Here, a fluorescence emission observed in the UV excitation device (UV excitation at 350 nm to 430 nm) was determined by taking an image.
More particularly, compound 1 (100 μM) and the kinase enzyme, Src or PDGFRa, were used at contents of 0.2 μg and 1 μg, respectively, and the solvent and experiment conditions used were substantially the same as in Example 3.
More particularly, the solvent and experiment conditions used were substantially the same as in Example 3. In the graph shown in FIG. 7, A represents a fluorescence intensity when compound 1 (100 μM) is used alone, B represents a fluorescence intensity when Mg (1 mM) is added to compound 1, C represents a fluorescence intensity when ATP (1 mM) is added to compound 1, and D represents a fluorescence intensity when compound 1 is treated with Mg (1 mM) and ATP (1 mM) at the same time.
More particularly, a concentration of the kinase enzyme was set to 0.2 μg/mL, fluorescence intensity according to the concentration of compound 1 was measured in the presence of Mg (1 mM) and ATP (1 mM), and the solvent conditions and other conditions were substantially the same as in Example 3.

[3] = test system: B16F10, CT26, SNU-475, A431, SKBR3, HeLa, U87MG cancer cells; assay: Fluorescence turn-on in cancer cells, single-photon and two-photon fluorescence microscopy; format: cell-based, mouse, human; settings: 50 μM, one hour; single-photon ex 405 nm, two-photon ex 880 nm, em 500 to 550 nm
Protocol: More particularly, a total of seven kinds of cancer cells, for example, (a) B16F10 mouse skin cancer cells, (b) CT26 mouse colon cancer cells, (c) SNU-475 human liver cancer cells, (d) A431 human epidermoid carcinoma cells, (e) SKBR3 human breast cancer cells, (f) HeLa human uterine cancer cells, and (g) U87MG human brain tumor cells, were treated with compound 1, and fluorescence images of the cancer cells were observed under a single-photon (confocal) fluorescence microscope (FV1000 model, Olympus) and a two-photon fluorescence microscope (Chameleon Ultra, Coherent, home-built version). Each of the cancer cells were incubated in a minimum essential medium with Earle's balanced salts (MEM/EBSS), a Dulbecco's modified Eagle medium (DMEM), a Roswell Park Memorial Institute (RPMI) medium, a fetal bovine serum (FBS), a penicillin-streptomycin (PS) medium, phosphate buffered saline (PBS), and a trypsin-EDTA culture broth, all of which were commercially available from Hyclone. In this case, the incubation was performed at 37° C. […] When the preparation was completed, a fluorescence image was obtained using a fluorescence microscope.
In FIG. 11, the top panel represents a bright field image, the middle panel represents a single-photon fluorescence microscope image of the cells, and the bottom panel represents a two-photon fluorescence microscope image of the cells.

CN(C)c1ccc2cc(C=O)c(O)cc2c1 [compound 1, 6-(dimethylamino)-3-hydroxyl-2-naphthaldehyde]
fluorescence intensity after later treatment of inhibitor ([1]; 24 hours 37° C. with kinase, Mg, ATP, then inhibitor 100 μM for another 24 hours): decreased
fluorescence intensity with inhibitor included ([1]; compound 1 100 μM, kinase 0.2 μg/ml, Mg 1 mM, ATP 1 mM, Gleevec 100 μM together): did not selectively bind to the kinase enzymes to cause a sufficient increase in fluorescence intensity
fluorescence under UV excitation (image) ([2]; PDGFRa with ATP and Mg, 37° C. 24 hours, UV 350 nm to 430 nm, compared with compound 1 alone): strong fluorescence
fluorescence intensity ([2]; compound 1 100 μM, protein 0.2 μg/mL, with Mg and ATP (1 mM), 37° C. 24 hours): highest fluorescence intensity
fluorescence intensity, effect of cofactors ([2]; compound 1 100 μM, case D: Mg (1 mM) and ATP (1 mM) together): highest increase in fluorescence intensity
fluorescence signal intensity according to concentration of kinase enzyme ([2]; compound 1 100 μM, enzyme 0.2 μg and 1 μg): stronger fluorescence signal intensity at higher concentrations
increase in fluorescence intensity ([2]; compound 1 at approximately 50 μM, kinase 0.2 μg/mL, Mg 1 mM, ATP 1 mM): approximately 50%
fluorescence image in cancer cells [3]: bright fluorescence image
